Data as given in PubChem BioAssay AID1259407 (Chemical Carcinogenesis Research Information System (CCRIS), 2018).
The source made the active and inactive calls. No rule for the calls is given here.

System: CCRIS mutagenicity, Ames/micronucleus/aberration tests
Assay: CCRIS mutagenicity studies

Measured: mutagenic call

Nc1ccc(Cl)cc1
inactive: End Point: IN VITRO MICRONUCLEUS, Test System: CHL/IU CELLS, Metabolic Activation: RAT, LIVER, S-9, PHENOBARBITAL AND 5,6-BENZOFLAVONE inactive; negative | Test System: AMES SALMONELLA TYPHIMURIUM, Strain/Indicator: TA97, Metabolic Activation: HAMSTER, LIVER, S-9, AROCLOR 1254, Method: PREINCUBATION inactive; negative | Test System: AMES SALMONELLA TYPHIMURIUM, Strain/Indicator: TA97, Metabolic Activation: NONE, Method: PREINCUBATION inactive; negative | Test System: AMES SALMONELLA TYPHIMURIUM, Strain/Indicator: TA97, Metabolic Activation: RAT, LIVER, S-9, AROCLOR 1254, Method: PREINCUBATION inactive; negative | Test System: AMES SALMONELLA TYPHIMURIUM, Strain/Indicator: TA98, Metabolic Activation: NONE, Method: PREINCUBATION inactive; negative | Test System: AMES SALMONELLA TYPHIMURIUM, Strain/Indicator: TA98, Metabolic Activation: NONE, Method: SPOT TEST inactive; negative | Test System: AMES SALMONELLA TYPHIMURIUM, Strain/Indicator: TA98, Metabolic Activation: RAT, LIVER, S-9, AROCLOR 1254, Method: SPOT TEST inactive; negative | Test System: AMES SALMONELLA TYPHIMURIUM, Strain/Indicator: TA98, Metabolic Activation: RAT, LIVER, S-9, SODIUM PHENOBARBITONE, Method: SPOT TEST inactive; negative | Test System: AMES SALMONELLA TYPHIMURIUM, Strain/Indicator: TA98, Metabolic Activation: RAT, LIVER, S-9, SODIUM PHENOBARBITONE, Method: STANDARD PLATE inactive; negative | Test System: AMES SALMONELLA TYPHIMURIUM, Strain/Indicator: TA100, Metabolic Activation: HAMSTER, LIVER, S-9 (5% OR 10%), AROCLOR 1254, Method: PREINCUBATION inactive; negative | Test System: AMES SALMONELLA TYPHIMURIUM, Strain/Indicator: TA100, Metabolic Activation: HAMSTER, LIVER, S-9, AROCLOR 1254, Method: PREINCUBATION inactive; negative | Test System: AMES SALMONELLA TYPHIMURIUM, Strain/Indicator: TA100, Metabolic Activation: HAMSTER, LIVER, S-9, AROCLOR 1254, Method: STANDARD PLATE inactive; negative | Test System: AMES SALMONELLA TYPHIMURIUM, Strain/Indicator: TA100, Metabolic Activation: NONE, Method: PREINCUBATION inactive; negative | Test System: AMES SALMONELLA TYPHIMURIUM, Strain/Indicator: TA100, Metabolic Activation: NONE, Method: SPOT TEST inactive; negative | Test System: AMES SALMONELLA TYPHIMURIUM, Strain/Indicator: TA100, Metabolic Activation: RAT, LIVER, S-9 (5% OR 10%), AROCLOR 1254, Method: PREINCUBATION inactive; negative | Test System: AMES SALMONELLA TYPHIMURIUM, Strain/Indicator: TA100, Metabolic Activation: RAT, LIVER, S-9 (30%), AROCLOR 1254, Method: PREINCUBATION inactive; negative | Test System: AMES SALMONELLA TYPHIMURIUM, Strain/Indicator: TA100, Metabolic Activation: RAT, LIVER, S-9, AROCLOR 1254, Method: PREINCUBATION inactive; negative | Test System: AMES SALMONELLA TYPHIMURIUM, Strain/Indicator: TA100, Metabolic Activation: RAT, LIVER, S-9, AROCLOR 1254, Method: SPOT TEST inactive; negative | Test System: AMES SALMONELLA TYPHIMURIUM, Strain/Indicator: TA100, Metabolic Activation: RAT, LIVER, S-9, AROCLOR 1254, Method: STANDARD PLATE inactive; negative | Test System: AMES SALMONELLA TYPHIMURIUM, Strain/Indicator: TA100, Metabolic Activation: RAT, LIVER, S-9, SODIUM PHENOBARBITONE, Method: SPOT TEST inactive; negative | Test System: AMES SALMONELLA TYPHIMURIUM, Strain/Indicator: TA100, Metabolic Activation: RAT, LIVER, S-9, SODIUM PHENOBARBITONE, Method: STANDARD PLATE inactive; negative | Test System: AMES SALMONELLA TYPHIMURIUM, Strain/Indicator: TA1535, Metabolic Activation: HAMSTER, LIVER, S-9, AROCLOR 1254, Method: PREINCUBATION inactive; negative | Test System: AMES SALMONELLA TYPHIMURIUM, Strain/Indicator: TA1535, Metabolic Activation: NONE, Method: PREINCUBATION inactive; negative | Test System: AMES SALMONELLA TYPHIMURIUM, Strain/Indicator: TA1535, Metabolic Activation: NONE, Method: SPOT TEST inactive; negative
active: Test System: AMES SALMONELLA TYPHIMURIUM, Strain/Indicator: TA98, Metabolic Activation: HAMSTER, LIVER, S-9 (10%), AROCLOR 1254, Method: PREINCUBATION active; positive | Test System: AMES SALMONELLA TYPHIMURIUM, Strain/Indicator: TA98, Metabolic Activation: HAMSTER, LIVER, S-9, AROCLOR 1254, Method: STANDARD PLATE active; positive | Test System: AMES SALMONELLA TYPHIMURIUM, Strain/Indicator: TA98, Metabolic Activation: RAT, LIVER, S-9 (5%, 10% OR 30%), AROCLOR 1254, Method: PREINCUBATION active; positive
